Patent US20250025439A1, “DERIVATIVES OF NIFUROXAZIDE FOR USE IN THE TREATMENT OF MITOCHONDRIAL DISORDERS AND NEURODEGENERATIVE DISEASES” (priority 2021, published 2025)

Key:
OPA1 and Mitofilin = assay: In situ proximity ligation assay OPA1/IMMT; assay type: cell-based, human; conditions: patient fibroblasts, NFX 5 μM
Protocol: Fibroblasts were seeded in 16-well Lab-Tek chambers slides (Nunc). For mitochondrial staining, cells were incubated in a 100 nM solution of MitoTracker Red CMXRos (Invitrogen) for 15 min. Cells were fixed with PFA 4% for 20 min at 37° C. and permeabilised with 2% Triton X-100 for 10 min. Then coverslips were saturated with 5% BSA for 45 min at RT. All antibodies were diluted with PBS-BSA 5%. Fibroblasts were incubated in the presence of convenient couple of primary antibodies for 1 h at RT. After PBS washes, incubation with appropriate PLA probe (PLA probe anti rabbit MINUS, PLA probe anti mouse PLUS), hybridization, ligation and amplification were done using the DuoLink In Situ Detection Reagents Green (Olink Biosciences) following manufacturer's instructions. Finally, the samples were mounted on glass slides using Prolong Gold Antifade Reagent (Molecular Probes). Images were captured with a ZEISS LSM 880 confocal laser-scanning microscope and analyzed using Huygens Essential Software™ (Scientific Volume Imaging). Data are represented as mean±SEM. Negative control experiments (with one antibody omitted) were performed in parallel and checked to result in the absence of PLA signal (FIG. 1).

[1] = molecular target: T1, Unconventional myosin-IXb (MYO9B) (Homo sapiens, UniProt Q13459); assay: Affinity chromatography with NFX-beads and mass spectrometry; assay type: binding; conditions: spectral counts, NFX coupled beads vs beads alone, human fibroblast extracts
T1 construct: Protein extracts from human fibroblasts were incubated with magnetic beads; endogenous in cells; host or cells: human fibroblast lysate
T1 sequence (Q13459 whole entry): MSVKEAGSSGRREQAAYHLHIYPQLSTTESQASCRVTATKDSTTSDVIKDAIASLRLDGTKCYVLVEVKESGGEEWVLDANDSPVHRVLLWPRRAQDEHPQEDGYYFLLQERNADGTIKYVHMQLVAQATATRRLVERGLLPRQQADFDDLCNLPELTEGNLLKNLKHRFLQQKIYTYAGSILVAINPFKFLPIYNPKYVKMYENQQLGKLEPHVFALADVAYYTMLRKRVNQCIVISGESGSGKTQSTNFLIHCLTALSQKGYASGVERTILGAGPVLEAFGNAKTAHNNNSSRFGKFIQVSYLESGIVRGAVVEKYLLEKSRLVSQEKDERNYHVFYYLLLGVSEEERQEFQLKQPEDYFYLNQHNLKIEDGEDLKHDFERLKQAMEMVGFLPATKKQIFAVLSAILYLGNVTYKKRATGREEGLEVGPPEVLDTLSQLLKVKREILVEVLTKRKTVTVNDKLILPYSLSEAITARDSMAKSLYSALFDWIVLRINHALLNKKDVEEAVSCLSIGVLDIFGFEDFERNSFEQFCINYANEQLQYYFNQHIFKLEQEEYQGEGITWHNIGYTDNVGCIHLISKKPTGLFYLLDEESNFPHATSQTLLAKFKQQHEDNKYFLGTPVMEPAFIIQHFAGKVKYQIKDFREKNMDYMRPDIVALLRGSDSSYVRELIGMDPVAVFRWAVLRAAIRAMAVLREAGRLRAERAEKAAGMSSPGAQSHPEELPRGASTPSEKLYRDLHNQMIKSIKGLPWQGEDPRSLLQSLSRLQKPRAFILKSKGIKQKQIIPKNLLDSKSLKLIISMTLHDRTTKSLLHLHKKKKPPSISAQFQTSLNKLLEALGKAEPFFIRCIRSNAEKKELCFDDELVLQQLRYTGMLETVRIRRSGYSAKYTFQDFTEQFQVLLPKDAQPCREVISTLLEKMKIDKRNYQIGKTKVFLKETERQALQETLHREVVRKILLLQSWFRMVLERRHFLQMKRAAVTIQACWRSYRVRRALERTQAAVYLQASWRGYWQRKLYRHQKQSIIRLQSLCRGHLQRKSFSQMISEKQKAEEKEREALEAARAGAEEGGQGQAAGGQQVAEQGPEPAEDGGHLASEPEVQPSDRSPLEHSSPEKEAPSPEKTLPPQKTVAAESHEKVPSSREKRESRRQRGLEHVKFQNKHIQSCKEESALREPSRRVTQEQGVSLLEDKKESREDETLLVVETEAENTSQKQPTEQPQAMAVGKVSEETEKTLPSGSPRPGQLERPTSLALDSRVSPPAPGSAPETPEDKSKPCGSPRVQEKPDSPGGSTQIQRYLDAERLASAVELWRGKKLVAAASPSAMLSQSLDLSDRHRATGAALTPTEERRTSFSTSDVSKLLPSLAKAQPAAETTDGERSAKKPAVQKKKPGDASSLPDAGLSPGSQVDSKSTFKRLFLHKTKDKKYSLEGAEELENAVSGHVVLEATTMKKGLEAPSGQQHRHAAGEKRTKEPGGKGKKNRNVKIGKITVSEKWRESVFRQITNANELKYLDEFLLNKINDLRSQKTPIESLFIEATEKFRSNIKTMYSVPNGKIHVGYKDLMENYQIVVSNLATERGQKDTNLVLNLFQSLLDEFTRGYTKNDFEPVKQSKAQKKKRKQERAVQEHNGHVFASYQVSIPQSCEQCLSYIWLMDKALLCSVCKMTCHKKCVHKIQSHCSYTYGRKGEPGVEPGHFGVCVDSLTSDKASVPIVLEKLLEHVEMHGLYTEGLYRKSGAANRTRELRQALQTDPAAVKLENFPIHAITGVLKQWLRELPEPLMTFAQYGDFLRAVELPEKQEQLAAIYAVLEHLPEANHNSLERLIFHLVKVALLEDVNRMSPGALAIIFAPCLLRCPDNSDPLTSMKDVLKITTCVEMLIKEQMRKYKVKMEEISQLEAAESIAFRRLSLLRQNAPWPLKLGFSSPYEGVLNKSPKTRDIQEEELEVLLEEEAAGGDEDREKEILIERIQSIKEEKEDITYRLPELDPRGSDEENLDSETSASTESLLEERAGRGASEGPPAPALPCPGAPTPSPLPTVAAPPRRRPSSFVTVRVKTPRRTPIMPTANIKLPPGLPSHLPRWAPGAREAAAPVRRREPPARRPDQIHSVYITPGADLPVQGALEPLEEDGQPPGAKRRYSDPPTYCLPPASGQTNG
Protocol: (§1) Fibroblasts were trypsinized and washed with PBS 1× then incubated in lysis buffer on ice during 20 minutes (Lysis buffer: Tris-HCl pH 7.5 50 mM, EDTA 2 mM, Triton X-100 0.1% supplemented with anti-protease and anti-phosphatase (Complete-Mini™—Roche). After centrifugation 15 minutes, 13 000 rpm at 4° C., supernatant was conserved and the protein concentration was determined using the Pierce BCA assay kit (Thermo Fisher Scientific).
(§2) 10 μL of magnetic beads and NFX-beads were washed three times in Bead buffer before to be resuspended 100 μL of Bead buffer (Bead buffer: Tris-HCl pH 7.5 50 mM, NaCl 150 mM, Triton X-100 0.1%, supplemented with anti-protease and anti-phosphatase (Complete-Mini™—Roche)) thanks to a magnetic rack (DynaMag-2 Ref 12321D Life Technologies). 800 μg of proteins were mixed with 100 μL of diluted beads and the final volume was set to 800 μL with Bead buffer. The proteins and the beads were incubated 30 minutes with rotation in a cold room. Using a magnetic rack, the beads were separated from the protein extract and washed three time with Bead buffer before to be resuspended in 75 μL of Laemmli2X. Laemmli with beads was put 5 minutes at 95° C. to eluate the proteins and the beads were discarded using a magnetic rack. 35 μL of the eluted proteins were subjected to SDS-PAGE and silver coloration (ProteoSilver™ Silver Stain Kit—Sigma Aldrich). Bands of interest were extracted from the gel and subjected to mass spectrometry.
(§3) Mass spectrometric identification and quantification of the pulled down proteins were performed as previously described (Shrivastava et al., EMBO, 2019, 38:e99871). The raw data were cleaned using the following pathway. First, only the proteins found to interact with the NFX coupled beads in the three replicates were kept for further analysis. […] The final proteins were then classified based on the fold chance and the p-value.
(§4) Identification of the NFX intracellular targets is a crucial step in understanding its mechanisms of action and to be able to improve its efficiency on a rational basis. To purify NFX-binding proteins, affinity chromatography purification was performed using magnetic beads. Protein extracts from human fibroblasts were incubated with magnetic beads alone or to which NFX has been covalently coupled (Scheme 1). Eluted fractions were subjected to SDS-PAGE electrophoresis and silver staining (FIG. 9A). The pattern was clearly different between eluted proteins from NFX-beads compared to those eluted form beads alone with 13 bands either appeared or were of a higher intensity with the NFX-beads (FIG. 9B). Excised bands were subjected to proteolytic digestion and mass spectrometry.

Vigilin (HDLBP) = molecular target: T2, Vigilin (HDLBP) (Homo sapiens, UniProt Q00341); assay: as above; assay type: binding; conditions: spectral counts, NFX coupled beads vs beads alone, human fibroblast extracts
T2 construct: Protein extracts from human fibroblasts were incubated with magnetic beads; endogenous in cells; host or cells: human fibroblast lysate
T2 sequence (Q00341 1-1268): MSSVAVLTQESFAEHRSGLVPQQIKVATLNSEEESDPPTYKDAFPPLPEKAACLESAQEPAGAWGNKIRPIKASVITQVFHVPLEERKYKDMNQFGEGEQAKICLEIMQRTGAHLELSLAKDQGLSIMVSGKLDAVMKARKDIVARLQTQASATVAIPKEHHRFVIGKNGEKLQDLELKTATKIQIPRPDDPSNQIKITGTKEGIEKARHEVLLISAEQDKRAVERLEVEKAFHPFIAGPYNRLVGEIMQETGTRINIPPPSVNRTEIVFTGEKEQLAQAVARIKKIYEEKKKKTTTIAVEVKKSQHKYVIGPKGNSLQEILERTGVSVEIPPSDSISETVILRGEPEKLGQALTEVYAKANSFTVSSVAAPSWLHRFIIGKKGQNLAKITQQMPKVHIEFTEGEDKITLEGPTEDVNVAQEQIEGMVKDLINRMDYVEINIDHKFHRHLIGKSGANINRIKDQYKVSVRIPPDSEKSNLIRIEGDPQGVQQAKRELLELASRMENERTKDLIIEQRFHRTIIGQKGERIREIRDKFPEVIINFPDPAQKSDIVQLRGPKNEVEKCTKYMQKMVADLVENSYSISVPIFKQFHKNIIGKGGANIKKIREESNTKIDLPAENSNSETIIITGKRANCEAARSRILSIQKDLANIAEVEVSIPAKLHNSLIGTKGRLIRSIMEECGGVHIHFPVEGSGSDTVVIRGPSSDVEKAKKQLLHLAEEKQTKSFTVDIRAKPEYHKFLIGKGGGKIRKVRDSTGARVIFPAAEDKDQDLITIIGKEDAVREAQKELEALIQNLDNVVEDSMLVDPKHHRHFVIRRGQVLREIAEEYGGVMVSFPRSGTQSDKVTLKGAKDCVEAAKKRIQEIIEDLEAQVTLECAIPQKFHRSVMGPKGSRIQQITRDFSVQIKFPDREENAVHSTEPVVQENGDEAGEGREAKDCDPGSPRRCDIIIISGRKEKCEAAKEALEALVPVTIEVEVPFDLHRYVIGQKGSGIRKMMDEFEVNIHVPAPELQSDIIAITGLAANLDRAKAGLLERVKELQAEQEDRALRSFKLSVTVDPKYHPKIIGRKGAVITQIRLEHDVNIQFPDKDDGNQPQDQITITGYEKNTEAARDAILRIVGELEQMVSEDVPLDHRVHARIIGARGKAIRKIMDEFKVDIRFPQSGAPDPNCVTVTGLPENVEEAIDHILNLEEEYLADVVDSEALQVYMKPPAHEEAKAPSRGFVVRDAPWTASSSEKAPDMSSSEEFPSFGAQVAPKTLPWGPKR
Protocol: as §1, §2, §3, §4

Fold change [1]: 34.52
Fold change (Vigilin (HDLBP)): 77.14
SMILES: O=C(N/N=C/c1ccc([N+](=O)[O-])o1)c1ccc(O)cc1 [NFX, (E)-4-hydroxy-N′-((5-nitrofuran-2-yl)methylene)benzohydrazide]
number of PLA spots OPA1/Mitofilin (OPA1 and Mitofilin): significant increase
